Data from ChEMBL document CHEMBL1201862, “PubChem BioAssay data set” (2004).
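The compound was tested at five concentrations on cells cultured in 96-well plates, with a 48-hour exposure period. At the GI50, growth is halved.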 Activity calls are given as the source filed them. Cut-off read from the data, not from the text of the source: active = GI50 up to about 1.1 µM and inactive = higher.

Tests used:
Assay in all cases: inhibition of tumour cell growth, NCI panel, 48 h
M19-MEL = system: M19-MEL
DMS-114 = system: DMS-114
HOP-18 = system: HOP-18
LXFL 529 = system: LXFL 529
DMS-273 = system: DMS-273
XF498 = system: XF498
SNB-78 = system: SNB-78
DLD-1 = system: DLD-1
RXF 631 = system: RXF 631

O=C(CCN(CCO)CCO)Nc1ccc2c(c1)C(=O)c1ccc(NC(=O)CCN(CCO)CCO)cc1C2=O
GI50 (M19-MEL): 13.7 µM (inactive) | GI50 (DMS-114): 5.11 µM (inactive) | GI50 (HOP-18): 27 µM (inactive) | GI50 (LXFL 529): 2.05 µM (inactive) | GI50 (DMS-273): 6.64 µM (inactive) | GI50 (XF498): 11.9 µM (inactive) | GI50 (SNB-78): 6.62 µM (inactive)

COC(=O)C(Cc1c[nH]c2ccccc12)NC(=O)C(Cc1c[nH]c2ccccc12)NC(=O)OCc1ccccc1 (configuration not stated)
GI50 (M19-MEL): 18.4 µM (inactive) | GI50 (DLD-1): 18.5 µM (inactive) | GI50 (DMS-114): 19.4 µM (inactive) | GI50 (RXF 631): 24 µM (inactive) | GI50 (LXFL 529): 16.7 µM (inactive) | GI50 (DMS-273): 16 µM (inactive) | GI50 (XF498): 14.8 µM (inactive) | GI50 (SNB-78): 25.8 µM (inactive)

CC12CCC(=O)N1c1ccc([N+](=O)[O-])cc1N2 (configuration not stated)
GI50 (M19-MEL): > 100 µM (inactive) | GI50 (DLD-1): > 100 µM (inactive) | GI50 (DMS-114): > 100 µM (inactive) | GI50 (HOP-18): > 100 µM (inactive) | GI50 (LXFL 529): > 100 µM (inactive) | GI50 (DMS-273): > 100 µM (inactive) | GI50 (SNB-78): > 100 µM (inactive)

C=CCN1CCC23c4c5ccc(O)c4OC2C(=NN=C2CCC4(O)C6Cc7ccc(O)c8c7C4(CCN6CC=C)C2O8)CCC3(O)C1C5 (configuration not stated)
GI50 (DLD-1): 38.7 µM (inactive) | GI50 (DMS-114): 24.7 µM (inactive) | GI50 (RXF 631): 20.5 µM (inactive) | GI50 (HOP-18): > 100 µM (inactive) | GI50 (LXFL 529): 32.1 µM (inactive) | GI50 (DMS-273): 19.1 µM (inactive) | GI50 (XF498): 17.3 µM (inactive) | GI50 (SNB-78): 27.2 µM (inactive)

COc1ccc2c(C(=O)O)cc3ccccc3c2c1OC
GI50 (M19-MEL): 21.3 µM (inactive) | GI50 (DLD-1): 30.9 µM (inactive) | GI50 (DMS-114): 17.7 µM (inactive) | GI50 (HOP-18): 15.5 µM (inactive) | GI50 (LXFL 529): 17.1 µM (inactive) | GI50 (DMS-273): 23.5 µM (inactive) | GI50 (XF498): 15.8 µM (inactive) | GI50 (SNB-78): 16.9 µM (inactive)

C=CC1=CC(C)C[C@]1(O)C(=O)OC (some centres not stated)
GI50 (M19-MEL): < 0.01 µM (active) | GI50 (DLD-1): < 0.01 µM (active) | GI50 (DMS-114): < 0.01 µM (active) | GI50 (RXF 631): < 0.01 µM (active) | GI50 (HOP-18): > 100 µM (inactive) | GI50 (LXFL 529): < 0.01 µM (active) | GI50 (DMS-273): < 0.01 µM (active) | GI50 (XF498): < 0.01 µM (active) | GI50 (SNB-78): > 100 µM (inactive)

CN/N=C(\C)CC(=O)Nc1cccc(Cl)c1C
GI50 (M19-MEL): > 100 µM (inactive) | GI50 (DLD-1): > 100 µM (inactive) | GI50 (DMS-114): > 100 µM (inactive) | GI50 (RXF 631): > 100 µM (inactive) | GI50 (HOP-18): > 100 µM (inactive) | GI50 (LXFL 529): > 100 µM (inactive) | GI50 (DMS-273): 53.7 µM (inactive) | GI50 (XF498): > 100 µM (inactive) | GI50 (SNB-78): > 100 µM (inactive)

CCCCN(CCCC)CCCn1cnc2ncccc2c1=O
GI50 (M19-MEL): > 100 µM (inactive) | GI50 (DLD-1): > 100 µM (inactive) | GI50 (DMS-114): 53.6 µM (inactive) | GI50 (LXFL 529): > 100 µM (inactive) | GI50 (DMS-273): > 100 µM (inactive) | GI50 (XF498): > 100 µM (inactive) | GI50 (SNB-78): > 100 µM (inactive)

O=C(CCC(=O)C(C(=O)c1ccccc1)c1ccccc1)Nc1cccc(C(F)(F)F)c1 (configuration not stated)
GI50 (M19-MEL): > 100 µM (inactive) | GI50 (DLD-1): > 100 µM (inactive) | GI50 (DMS-114): > 100 µM (inactive) | GI50 (HOP-18): > 100 µM (inactive) | GI50 (LXFL 529): > 100 µM (inactive) | GI50 (DMS-273): > 100 µM (inactive) | GI50 (XF498): > 100 µM (inactive) | GI50 (SNB-78): > 100 µM (inactive)

CCCN(CCC)c1c([N+](=O)[O-])cc(C(N)=O)cc1[N+](=O)[O-]
GI50 (M19-MEL): 48.5 µM (inactive) | GI50 (DLD-1): > 100 µM (inactive) | GI50 (DMS-114): 71.9 µM (inactive) | GI50 (LXFL 529): > 100 µM (inactive) | GI50 (DMS-273): 58.9 µM (inactive) | GI50 (XF498): 81.3 µM (inactive)

COc1c2c(cc3c1C(=O)Cc1ccc4c(c1CN(C)CC3)OCO4)OCO2
GI50 (M19-MEL): > 100 µM (inactive) | GI50 (DLD-1): > 100 µM (inactive) | GI50 (DMS-114): 39.4 µM (inactive) | GI50 (RXF 631): 44.8 µM (inactive) | GI50 (HOP-18): 20.7 µM (inactive) | GI50 (SNB-78): > 100 µM (inactive)

COCOCc1cc(OCc2ccccc2)c(OC)cc1Br
GI50 (M19-MEL): > 100 µM (inactive) | GI50 (DLD-1): > 100 µM (inactive) | GI50 (HOP-18): > 100 µM (inactive) | GI50 (DMS-273): 64.6 µM (inactive) | GI50 (XF498): > 100 µM (inactive) | GI50 (SNB-78): > 100 µM (inactive)

COc1ccc(C(=O)C(C(=O)CCC(=O)Nc2ccc(Cl)c(Cl)c2)c2ccc(OC)cc2)cc1 (configuration not stated)
GI50 (M19-MEL): > 100 µM (inactive) | GI50 (DLD-1): > 100 µM (inactive) | GI50 (DMS-114): > 100 µM (inactive) | GI50 (RXF 631): > 100 µM (inactive) | GI50 (HOP-18): > 100 µM (inactive) | GI50 (LXFL 529): > 100 µM (inactive) | GI50 (DMS-273): > 100 µM (inactive) | GI50 (XF498): > 100 µM (inactive) | GI50 (SNB-78): > 100 µM (inactive)

O=C(NCC#CCO)C(F)(F)F
GI50 (DLD-1): > 100 µM (inactive) | GI50 (DMS-114): > 100 µM (inactive) | GI50 (RXF 631): > 100 µM (inactive) | GI50 (DMS-273): > 100 µM (inactive) | GI50 (XF498): > 100 µM (inactive) | GI50 (SNB-78): > 100 µM (inactive)

Cc1cc(N)c2cc(NC(=O)CCCCCCCCC(=O)Nc3ccc4nc(C)cc(N)c4c3)ccc2n1
GI50 (M19-MEL): 15.4 µM (inactive) | GI50 (DLD-1): > 100 µM (inactive) | GI50 (HOP-18): > 100 µM (inactive) | GI50 (LXFL 529): 4.37 µM (inactive) | GI50 (DMS-273): 7.19 µM (inactive) | GI50 (XF498): > 27.2 µM (inactive) | GI50 (SNB-78): > 100 µM (inactive)

CCOC(=O)C1N(S(=O)(=O)c2ccc(C)cc2)CCC12c1ccccc1N(C(C)=O)C2c1ccc(OC)c(OC)c1 (configuration not stated)
GI50 (M19-MEL): > 100 µM (inactive) | GI50 (DLD-1): 78.2 µM (inactive) | GI50 (DMS-114): > 100 µM (inactive) | GI50 (LXFL 529): > 100 µM (inactive) | GI50 (DMS-273): > 100 µM (inactive) | GI50 (XF498): 21.7 µM (inactive) | GI50 (SNB-78): > 100 µM (inactive)

CC(C)(C)C(=O)Nc1ccccc1Br
GI50 (M19-MEL): > 100 µM (inactive) | GI50 (DLD-1): > 100 µM (inactive) | GI50 (DMS-114): > 100 µM (inactive) | GI50 (LXFL 529): > 100 µM (inactive) | GI50 (DMS-273): > 100 µM (inactive) | GI50 (XF498): > 100 µM (inactive)

CSc1ccc2c(cc1=O)C(NC(=O)c1ccc(OC(C)=O)cc1)CCc1cc(O)c(O)c(O)c1-2 (configuration not stated)
GI50 (M19-MEL): 12.8 µM (inactive) | GI50 (DLD-1): 17.8 µM (inactive) | GI50 (DMS-114): 19.8 µM (inactive) | GI50 (LXFL 529): 17.3 µM (inactive) | GI50 (DMS-273): 22.5 µM (inactive) | GI50 (SNB-78): 30.8 µM (inactive)

CCOC(=O)C12CCCC1(O)N(NC(=O)OC)C(C)=C2C(=O)OC (configuration not stated)
GI50 (M19-MEL): > 100 µM (inactive) | GI50 (DLD-1): > 100 µM (inactive) | GI50 (DMS-114): > 100 µM (inactive) | GI50 (RXF 631): > 100 µM (inactive) | GI50 (HOP-18): > 100 µM (inactive) | GI50 (LXFL 529): > 100 µM (inactive) | GI50 (DMS-273): > 100 µM (inactive) | GI50 (XF498): > 100 µM (inactive) | GI50 (SNB-78): > 100 µM (inactive)

COc1ccc(-c2onc(-c3ccc([N+](=O)[O-])cc3)c2C2=NCCN2)cc1
GI50 (M19-MEL): > 100 µM (inactive) | GI50 (DLD-1): 74.1 µM (inactive) | GI50 (HOP-18): 87.5 µM (inactive) | GI50 (LXFL 529): 35.5 µM (inactive) | GI50 (XF498): 66.7 µM (inactive) | GI50 (SNB-78): 67.3 µM (inactive)

O=c1[nH]c2c(c3ccccc13)CCc1ccccc1-2
GI50 (M19-MEL): > 100 µM (inactive) | GI50 (DMS-114): > 100 µM (inactive) | GI50 (LXFL 529): > 100 µM (inactive) | GI50 (DMS-273): > 100 µM (inactive) | GI50 (SNB-78): > 100 µM (inactive)

Cc1nc2c(N)ncnc2o1
GI50 (M19-MEL): > 100 µM (inactive) | GI50 (DLD-1): > 100 µM (inactive) | GI50 (DMS-114): > 100 µM (inactive) | GI50 (RXF 631): > 100 µM (inactive) | GI50 (HOP-18): > 100 µM (inactive) | GI50 (LXFL 529): > 100 µM (inactive) | GI50 (DMS-273): > 100 µM (inactive) | GI50 (SNB-78): > 100 µM (inactive)

N#CC(C#N)=c1c2nsnc2c(=C(C#N)C#N)c2nsnc12
GI50 (DLD-1): 2.03 µM (inactive) | GI50 (DMS-114): 1.91 µM (inactive) | GI50 (HOP-18): 2.66 µM (inactive) | GI50 (LXFL 529): 1.63 µM (inactive) | GI50 (DMS-273): 1.57 µM (inactive) | GI50 (SNB-78): 1.74 µM (inactive)

Cc1nc2c(n1CCC(C)C)C(=O)c1ccccc1C2=O
GI50 (M19-MEL): 14.5 µM (inactive) | GI50 (DLD-1): 11.1 µM (inactive) | GI50 (LXFL 529): 13.1 µM (inactive) | GI50 (DMS-273): 11 µM (inactive) | GI50 (XF498): 17.2 µM (inactive) | GI50 (SNB-78): 28.1 µM (inactive)

O=C(CC12C3C4C1C1C2C3C41CC(=O)NO)NO (configuration not stated)
GI50 (DLD-1): 48.1 µM (inactive) | GI50 (DMS-114): 24.2 µM (inactive) | GI50 (RXF 631): 27.4 µM (inactive) | GI50 (LXFL 529): 47.6 µM (inactive) | GI50 (DMS-273): 40.6 µM (inactive) | GI50 (XF498): > 100 µM (inactive) | GI50 (SNB-78): 44.3 µM (inactive)

O=[N+]([O-])C(=C(c1ccccc1)c1ccccc1)[N+](=O)[O-]
GI50 (DLD-1): 3.46 µM (inactive) | GI50 (DMS-114): 18.7 µM (inactive) | GI50 (LXFL 529): 15.6 µM (inactive) | GI50 (DMS-273): 4.53 µM (inactive) | GI50 (SNB-78): > 10 µM (inactive)
